According to patent US20250313556A1, “CERTAIN CHEMICAL ENTITIES, COMPOSITIONS, AND METHODS” (MRJA THERAPEUTICS, INC., priority 2022, published 2025):

Target: c-KIT (Homo sapiens, UniProt P10721)
Assay: c-KIT ADP-Glo biochemical assay
Details: class ranges
Protocol: The inhibitory activity against c-KIT was measured using ADP-Glo assay. The percent (%) inhibition at each concentration of compound is calculated based on and relative to the luminescence signal in the Max and Min control wells contained within each assay plate. The Max control wells contain enzyme and substrate as 0% inhibition, and the Min control wells only contain substrate without enzyme as 100% inhibition. The concentrations and % inhibition values for tested compounds are plotted and the concentration of compound required for 50% inhibition (IC50) is determined with a four-parameter logistic dose response equation. The ability of the compounds in Table 1 to inhibit c-KIT was determined.

Chain of c-KIT (P10721 26-976): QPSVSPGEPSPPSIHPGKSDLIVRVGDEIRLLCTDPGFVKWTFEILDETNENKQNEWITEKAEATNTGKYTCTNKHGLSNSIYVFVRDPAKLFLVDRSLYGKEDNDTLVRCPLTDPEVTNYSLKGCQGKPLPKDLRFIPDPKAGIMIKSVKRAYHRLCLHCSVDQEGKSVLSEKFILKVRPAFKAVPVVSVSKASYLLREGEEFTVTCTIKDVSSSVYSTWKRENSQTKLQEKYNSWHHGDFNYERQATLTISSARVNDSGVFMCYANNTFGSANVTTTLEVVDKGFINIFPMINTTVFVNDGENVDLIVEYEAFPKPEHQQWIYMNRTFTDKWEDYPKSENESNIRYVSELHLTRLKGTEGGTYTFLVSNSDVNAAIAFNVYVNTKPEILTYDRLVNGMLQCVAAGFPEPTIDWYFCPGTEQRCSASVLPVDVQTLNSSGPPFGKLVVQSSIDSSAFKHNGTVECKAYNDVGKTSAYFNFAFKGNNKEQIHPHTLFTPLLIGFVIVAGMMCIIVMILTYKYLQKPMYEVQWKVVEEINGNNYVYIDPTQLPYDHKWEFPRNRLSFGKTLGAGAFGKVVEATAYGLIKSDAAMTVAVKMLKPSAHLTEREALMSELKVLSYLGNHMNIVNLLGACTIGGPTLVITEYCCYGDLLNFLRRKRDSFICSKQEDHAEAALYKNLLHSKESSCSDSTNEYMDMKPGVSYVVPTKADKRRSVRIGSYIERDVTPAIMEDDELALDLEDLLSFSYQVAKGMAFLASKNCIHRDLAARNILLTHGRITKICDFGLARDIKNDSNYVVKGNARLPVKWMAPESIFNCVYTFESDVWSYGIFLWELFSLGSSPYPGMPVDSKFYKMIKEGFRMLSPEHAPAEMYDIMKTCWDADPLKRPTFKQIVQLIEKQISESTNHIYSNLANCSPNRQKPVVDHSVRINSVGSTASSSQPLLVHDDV

IC50 [nM]	Compound
≤ 100	COC(=O)N1CC(c2nc(-c3cc(F)c(C)c(NC(=O)c4cnc5cc(OC)ccn45)c3)no2)C1 [Compound C029, methyl 3-(3-(3-fluoro-5-(7-methoxyimidazo[1,2-a]pyridine-3-carboxamido)-4-methylphenyl)-1,2,4-oxadiazol-5-yl)azetidine-1-carboxylate]
100 to 1000	Cc1c(F)cc(-c2noc([C@@H]3C[C@H]3F)n2)cc1NC(=O)c1cnc2cc(N3CCOCC3)ccn12 [Compound C050, N-(3-fluoro-5-(5-((1S,2R)-2-fluorocyclopropyl)-1,2,4-oxadiazol-3-yl)-2-methylphenyl)-7-morpholinoimidazo[1,2-a]pyridine-3-carboxamide]
